Test results published in PubChem BioAssay AID1963851 (Molecular Pharmacology Branch, DTP, NCI, 2024).

Tested on: 188146-221-R-J1-PDC complex spheroid viability
Test: Anticancer human tumor 188146-221-R-J1-PDC patient-derived colon adenocarcinoma cell line growth inhibition [POLQ]
Conditions: for IC50: curve of first compound; for viability, T/C: stronger effect = lower value; active = viability on the fitted dose curve at most 10% of control; inactive = the rest
Summary of the method: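 Growth inhibition in 3D: complex spheroids (tumor PDC, HUVEC, MSC) treated with POLQ inhibitor combinations; where Cmax unknown, highest tested concentration 10 microM, except SN-38 at 1 microM.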

[1] = second compound 0.0316 µM, first compound 0.0316 µM
[2] = second compound 0.0316 µM, first compound 0.1 µM
[3] = second compound 0.0316 µM, first compound 0.316 µM
[4] = second compound 0.0316 µM, first compound 1 µM
[5] = second compound 0.0316 µM, first compound 3.16 µM
[6] = second compound 0.0316 µM, first compound 10 µM
[7] = second compound 0.1 µM, first compound 0.0316 µM
[8] = second compound 0.1 µM, first compound 0.1 µM
[9] = second compound 0.1 µM, first compound 0.316 µM
[10] = second compound 0.1 µM, first compound 1 µM
[11] = second compound 0.1 µM, first compound 3.16 µM
[12] = second compound 0.1 µM, first compound 10 µM
[13] = second compound 0.316 µM, first compound 0.0316 µM
[14] = second compound 0.316 µM, first compound 0.1 µM
[15] = second compound 0.316 µM, first compound 0.316 µM
[16] = second compound 0.316 µM, first compound 1 µM
[17] = second compound 0.316 µM, first compound 3.16 µM
[18] = second compound 0.316 µM, first compound 10 µM
[19] = second compound 1 µM, first compound 0.0316 µM
[20] = second compound 1 µM, first compound 0.1 µM
[21] = second compound 1 µM, first compound 0.316 µM
[22] = second compound 1 µM, first compound 1 µM
[23] = second compound 1 µM, first compound 3.16 µM
[24] = second compound 1 µM, first compound 10 µM
[25] = second compound 3.16 µM, first compound 0.0316 µM
[26] = second compound 3.16 µM, first compound 0.1 µM
[27] = second compound 3.16 µM, first compound 0.316 µM
[28] = second compound 3.16 µM, first compound 1 µM
[29] = second compound 3.16 µM, first compound 3.16 µM
[30] = second compound 3.16 µM, first compound 10 µM
[31] = second compound 10 µM, first compound 0.0316 µM
[32] = second compound 10 µM, first compound 0.1 µM
[33] = second compound 10 µM, first compound 0.316 µM
[34] = second compound 10 µM, first compound 1 µM
[35] = second compound 10 µM, first compound 3.16 µM
[36] = second compound 10 µM, first compound 10 µM
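Also: spheroids exposed to compounds for seven days.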
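For viability, T/C in this document: 100% = DMSO vehicle control viability.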

CNCc1ccc(-c2[nH]c3cc(F)cc4c3c2CCNC4=O)cc1 + Nc1ccc(C#CCN(C(=O)Cc2ncc(C(F)(F)F)cc2C(F)(F)F)c2ccc(F)cc2)nn1
inactive: viability, T/C [1] 114% | viability, T/C [2] 107% | viability, T/C [3] 109% | viability, T/C [4] 106% | viability, T/C [5] 103% | viability, T/C [6] 120% | viability, T/C [7] 111% | viability, T/C [8] 104% | viability, T/C [9] 100% | viability, T/C [10] 113% | viability, T/C [11] 108% | viability, T/C [12] 116% | viability, T/C [13] 114% | viability, T/C [14] 100% | viability, T/C [15] 85.3% | viability, T/C [16] 110% | viability, T/C [17] 123% | viability, T/C [18] 119% | viability, T/C [19] 106% | viability, T/C [20] 99.2% | viability, T/C [21] 93.5% | viability, T/C [22] 111% | viability, T/C [23] 104% | viability, T/C [24] 100% | viability, T/C [25] 102% | viability, T/C [26] 94.7% | viability, T/C [27] 99.5% | viability, T/C [28] 109% | viability, T/C [29] 110% | viability, T/C [30] 103% | viability, T/C [31] 114% | viability, T/C [32] 115% | viability, T/C [33] 112% | viability, T/C [34] 108% | viability, T/C [35] 120% | viability, T/C [36] 130%
> 10 µM: IC50 (second compound 0.0316 µM) | IC50 (second compound 0.1 µM) | IC50 (second compound 0.316 µM) | IC50 (second compound 1 µM) | IC50 (second compound 3.16 µM) | IC50 (second compound 10 µM)

Cn1ncnc1[C@H]1c2n[nH]c(=O)c3cc(F)cc(c23)N[C@@H]1c1ccc(F)cc1 + Nc1ccc(C#CCN(C(=O)Cc2ncc(C(F)(F)F)cc2C(F)(F)F)c2ccc(F)cc2)nn1
> 0.1 µM: IC50 (second compound 0.0316 µM) | IC50 (second compound 0.1 µM) | IC50 (second compound 0.316 µM) | IC50 (second compound 1 µM) | IC50 (second compound 3.16 µM) | IC50 (second compound 10 µM)
inactive: viability, T/C (second compound 0.0316 µM, first compound 0.000316 µM) 92% | viability, T/C (second compound 0.0316 µM, first compound 0.001 µM) 109% | viability, T/C (second compound 0.0316 µM, first compound 0.00316 µM) 98.2% | viability, T/C (second compound 0.0316 µM, first compound 0.01 µM) 116% | viability, T/C [1] 98.7% | viability, T/C [2] 93.2% | viability, T/C (second compound 0.1 µM, first compound 0.000316 µM) 111% | viability, T/C (second compound 0.1 µM, first compound 0.001 µM) 104% | viability, T/C (second compound 0.1 µM, first compound 0.00316 µM) 108% | viability, T/C (second compound 0.1 µM, first compound 0.01 µM) 102% | viability, T/C [7] 100% | viability, T/C [8] 96% | viability, T/C (second compound 0.316 µM, first compound 0.000316 µM) 102% | viability, T/C (second compound 0.316 µM, first compound 0.001 µM) 103% | viability, T/C (second compound 0.316 µM, first compound 0.00316 µM) 96.7% | viability, T/C (second compound 0.316 µM, first compound 0.01 µM) 93.8% | viability, T/C [13] 112% | viability, T/C [14] 98.9% | viability, T/C (second compound 1 µM, first compound 0.000316 µM) 100% | viability, T/C (second compound 1 µM, first compound 0.001 µM) 107% | viability, T/C (second compound 1 µM, first compound 0.00316 µM) 109% | viability, T/C (second compound 1 µM, first compound 0.01 µM) 94.5% | viability, T/C [19] 95.2% | viability, T/C [20] 97.2% | viability, T/C (second compound 3.16 µM, first compound 0.000316 µM) 106% | viability, T/C (second compound 3.16 µM, first compound 0.001 µM) 99.3% | viability, T/C (second compound 3.16 µM, first compound 0.00316 µM) 95.9% | viability, T/C (second compound 3.16 µM, first compound 0.01 µM) 91.7% | viability, T/C [25] 95.8% | viability, T/C [26] 93% | viability, T/C (second compound 10 µM, first compound 0.000316 µM) 108% | viability, T/C (second compound 10 µM, first compound 0.001 µM) 95.3% | viability, T/C (second compound 10 µM, first compound 0.00316 µM) 116% | viability, T/C (second compound 10 µM, first compound 0.01 µM) 119% | viability, T/C [31] 109% | viability, T/C [32] 90.1%

O=C(c1cc(Cc2n[nH]c(=O)c3ccccc23)ccc1F)N1CCN(C(=O)C2CC2)CC1 + Nc1ccc(C#CCN(C(=O)Cc2ncc(C(F)(F)F)cc2C(F)(F)F)c2ccc(F)cc2)nn1
> 10 µM: IC50 (second compound 0.0316 µM) | IC50 (second compound 0.1 µM) | IC50 (second compound 0.316 µM) | IC50 (second compound 1 µM) | IC50 (second compound 3.16 µM) | IC50 (second compound 10 µM)
inactive: viability, T/C [1] 99.7% | viability, T/C [2] 116% | viability, T/C [3] 104% | viability, T/C [4] 98.3% | viability, T/C [5] 93.6% | viability, T/C [6] 72.2% | viability, T/C [7] 111% | viability, T/C [8] 100% | viability, T/C [9] 107% | viability, T/C [10] 90.7% | viability, T/C [11] 101% | viability, T/C [12] 75% | viability, T/C [13] 116% | viability, T/C [14] 88.5% | viability, T/C [15] 89.9% | viability, T/C [16] 106% | viability, T/C [17] 80.9% | viability, T/C [18] 81.6% | viability, T/C [19] 117% | viability, T/C [20] 90.3% | viability, T/C [21] 94.3% | viability, T/C [22] 92.5% | viability, T/C [23] 96% | viability, T/C [24] 69.1% | viability, T/C [25] 101% | viability, T/C [26] 104% | viability, T/C [27] 97% | viability, T/C [28] 102% | viability, T/C [29] 91.2% | viability, T/C [30] 77.1% | viability, T/C [31] 95.3% | viability, T/C [32] 95.3% | viability, T/C [33] 110% | viability, T/C [34] 89.8% | viability, T/C [35] 88.2% | viability, T/C [36] 73%
